Reference: patent US12673975B2, “Cyclic peptide, cell scaffold material, cell separating material, and medium” (FUJIFILM Corporation, priority 2019, dated 2026)
pKd: −log10 of the molar value. Where two headings read alike, the source gives them in different places. Starred links: 1 amine or outer side, 2 acyl side, 3 side chain; linkers in the order of their positions; H or OH if unused. Positions of bridges follow the written chain, without caps; N, C: chain ends. Non-standard residues stand in square brackets, D forms with d. Residues, ends and D or L forms follow the SMILES beside them. Pen = CC(C)(S)[C@H](N)C(=O)O; hCys = N[C@@H](CCS)C(=O)O; Dab = NCC[C@H](N)C(=O)O; Dap = NC[C@H](N)C(=O)O; X1 = O=C(C[*:2])[*:1]; X2 = O=C(C[*:1])[*:2]

Legend:
[1] = Evaluation of molecule stability (alkali treatment, residual rate by LC/MS); format: physicochemical; details: for Performance evaluation: Stability (residual rate of cyclic peptide after alkali treatment): 500 μM peptide aqueous solution plus equivalent of 1 M sodium hydroxide, 15° C., 3 hours, LC/MS peak area; for Stability (molecule stability, residual rate of the cyclic peptide rank): alkali treatment, residual rate by LC/MS
In short: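 500 μM aqueous cyclic peptide mixed with an equal volume of 1 M NaOH and held 3 h at 15 °C. Residual rate is total LC/MS peak area after treatment relative to untreated (100%), using a C18 column, pH 3 ammonium formate/acetonitrile gradient, 45 °C, ESI±.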

human integrin αvβ5 = human integrin αvβ5 (Homo sapiens, UniProt P06756+P18084); assay: Evaluation of integrin binding property (surface plasmon resonance, Biacore 3000, immobilized cyclic peptide)
Sequence of human integrin αvβ5 (P06756 31-1048): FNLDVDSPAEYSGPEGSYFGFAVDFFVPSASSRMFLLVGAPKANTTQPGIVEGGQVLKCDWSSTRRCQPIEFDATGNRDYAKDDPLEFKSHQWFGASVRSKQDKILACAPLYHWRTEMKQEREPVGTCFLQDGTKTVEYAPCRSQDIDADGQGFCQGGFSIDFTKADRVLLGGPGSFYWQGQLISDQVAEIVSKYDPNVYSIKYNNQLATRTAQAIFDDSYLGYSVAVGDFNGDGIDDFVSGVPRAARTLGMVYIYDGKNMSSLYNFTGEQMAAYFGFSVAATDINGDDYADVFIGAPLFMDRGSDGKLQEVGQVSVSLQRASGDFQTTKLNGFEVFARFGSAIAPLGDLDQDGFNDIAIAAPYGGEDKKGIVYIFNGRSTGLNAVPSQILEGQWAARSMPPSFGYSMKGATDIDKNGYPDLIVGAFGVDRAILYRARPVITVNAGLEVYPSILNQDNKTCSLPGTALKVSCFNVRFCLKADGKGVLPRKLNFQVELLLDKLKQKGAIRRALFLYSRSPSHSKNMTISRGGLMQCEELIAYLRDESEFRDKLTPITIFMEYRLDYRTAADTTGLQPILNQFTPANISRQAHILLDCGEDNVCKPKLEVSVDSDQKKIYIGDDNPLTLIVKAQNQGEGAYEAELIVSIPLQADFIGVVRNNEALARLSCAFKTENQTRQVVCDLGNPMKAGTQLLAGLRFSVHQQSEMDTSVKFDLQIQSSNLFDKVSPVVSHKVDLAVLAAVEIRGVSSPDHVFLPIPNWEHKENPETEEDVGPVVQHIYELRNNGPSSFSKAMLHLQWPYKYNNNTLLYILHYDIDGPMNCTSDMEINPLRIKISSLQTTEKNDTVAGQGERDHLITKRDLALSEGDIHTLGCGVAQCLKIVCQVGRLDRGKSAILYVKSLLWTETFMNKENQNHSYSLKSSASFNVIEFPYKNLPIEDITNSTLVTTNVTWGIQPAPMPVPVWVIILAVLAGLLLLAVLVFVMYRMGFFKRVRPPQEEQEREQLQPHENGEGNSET
Sequence of human integrin αvβ5 (P18084 24-799): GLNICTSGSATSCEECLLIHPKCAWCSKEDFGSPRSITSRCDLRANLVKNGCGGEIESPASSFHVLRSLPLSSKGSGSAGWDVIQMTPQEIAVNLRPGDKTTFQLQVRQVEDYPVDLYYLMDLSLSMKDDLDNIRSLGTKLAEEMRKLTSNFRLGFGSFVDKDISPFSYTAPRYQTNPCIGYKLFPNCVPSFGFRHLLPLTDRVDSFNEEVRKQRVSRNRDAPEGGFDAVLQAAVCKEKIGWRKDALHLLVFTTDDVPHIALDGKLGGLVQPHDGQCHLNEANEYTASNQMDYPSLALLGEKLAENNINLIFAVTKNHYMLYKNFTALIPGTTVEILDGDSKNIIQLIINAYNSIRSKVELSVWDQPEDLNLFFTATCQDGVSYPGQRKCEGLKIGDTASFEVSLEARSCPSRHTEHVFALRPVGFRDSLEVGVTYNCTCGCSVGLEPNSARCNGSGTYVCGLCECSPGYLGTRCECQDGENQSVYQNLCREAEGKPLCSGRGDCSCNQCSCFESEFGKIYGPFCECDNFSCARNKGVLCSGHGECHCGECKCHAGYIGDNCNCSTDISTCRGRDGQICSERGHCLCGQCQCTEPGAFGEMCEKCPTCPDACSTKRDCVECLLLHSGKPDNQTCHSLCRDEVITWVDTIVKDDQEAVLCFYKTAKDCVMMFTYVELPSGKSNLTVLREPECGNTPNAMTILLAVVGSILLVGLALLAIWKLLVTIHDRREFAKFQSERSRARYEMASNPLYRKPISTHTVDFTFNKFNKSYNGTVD
In short: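 SPR with cyclic peptide amine-coupled via EDC/NHS to a CM5 chip, blank channel as reference. Integrin αvβ5 at 30, 100, 300 and 1,000 nM injected 10 min at 25 °C in HEPES buffer pH 7.4 with 5 mM MgCl2, 30 min buffer flow, EDTA regeneration; Kd from reference-subtracted signals, graded by category.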

[2] = SPR, 25° C., HEPES buffer with 5 mM magnesium chloride, integrin 30-1,000 nM, read-out: Performance evaluation: Binding activity (dissociation constant between the cyclic peptide and human integrin αvβ5)
[3] = surface plasmon resonance, immobilized cyclic peptide, human integrin αvβ5, read-out: Binding activity (integrin binding property, dissociation constant rank)

Structure (SMILES): N=C(N)NCCC[C@@H]1NC(=O)[C@H](Cc2ccc(O)cc2)NC(=O)[C@H](CC(N)=O)NC(=O)[C@H](CC(=O)O)NC(=O)CNC(=O)[C@H](CCCNC(=N)N)NC(=O)[C@@H]2CCCN2C(=O)[C@H](CCC(=O)O)NC(=O)[C@@H](NC(=O)[C@H](CC(=O)O)NC(=O)[C@H](CCCCN)NC(=O)[C@H](CCCCN)NC(=O)[C@@H](N)CCCCN)CCSCC(=O)NCC[C@@H](C(=O)N[C@@H](CC(=O)O)C(=O)O)NC1=O [Cyclic peptide 38, KKKD-(Hcy)-EPRGDNYR(Dab(acetyl))D] (H-KKKD[hCys]EPRGDNYR[Dab]D-OH; linker 5-14 via X2)
- Performance evaluation: Stability (residual rate of cyclic peptide after alkali treatment) [1]: A (The residual rate of the cyclic peptide is 70% or more.)
- pKd (human integrin αvβ5; [2]): 7.00 to 7.30

Structure (SMILES): CC(C)[C@@H]1NC(=O)[C@@H](N)CCSCC(=O)NCC[C@@H](C(=O)N[C@@H](CCCCN)C(=O)N[C@@H](CCCCN)C(=O)N[C@@H](CCCCN)C(=O)O)NC(=O)[C@H](C)NC(=O)[C@H](Cc2ccccc2)NC(=O)[C@H]([C@@H](C)O)NC(=O)[C@H](CC(=O)O)NC(=O)CNC(=O)[C@H](CCCNC(=N)N)NC(=O)[C@@H]2CCCN2C1=O [Cyclic peptide 103, (Hcy)-VPRGDTFA(Dab(acetyl))KKK] (H-[hCys]VPRGDTFA[Dab]KKK-OH; linker 1-10 via X2)
- Stability (molecule stability, residual rate of the cyclic peptide rank) [1]: A (The residual rate of the cyclic peptide is 70% or more.)
- pKd (human integrin αvβ5; [3]): > 7.30

Structure (SMILES): CC[C@H](C)[C@@H]1NC(=O)[C@@H](NC(=O)[C@H](CCCCN)NC(=O)[C@H](CCCCN)NC(=O)[C@@H](N)CCCCN)CCSCC(=O)NCC[C@@H](C(=O)O)NC(=O)[C@H](Cc2ccccc2)NC(=O)[C@H]([C@@H](C)O)NC(=O)[C@H](CC(=O)O)NC(=O)CNC(=O)[C@H](CCCNC(=N)N)NC(=O)[C@@H]2CCCN2C1=O [Cyclic peptide 63, KKK-(Hcy)-IPRGDTF(Dab(acetyl))] (H-KKK[hCys]IPRGDTF[Dab]-OH; linker 4-12 via X2)
- Performance evaluation: Stability (residual rate of cyclic peptide after alkali treatment) [1]: A (The residual rate of the cyclic peptide is 70% or more.)
- pKd (human integrin αvβ5; [2]): > 7.30

Structure (SMILES): N=C(N)NCCC[C@@H]1NC(=O)[C@H](Cc2ccc(O)cc2)NC(=O)[C@H](CC(N)=O)NC(=O)[C@H](CC(=O)O)NC(=O)CNC(=O)[C@H](CCCNC(=N)N)NC(=O)[C@@H]2CCCN2C(=O)[C@H](CCC(=O)O)NC(=O)[C@@H](NC(=O)[C@H](CCCCN)NC(=O)[C@H](CCCCN)NC(=O)[C@@H](N)CCCCN)CNC(=O)CSCC[C@@H](C(=O)O)NC1=O [Cyclic peptide 46, KKK(Dap(acetyl))EPRGDNYR-(Hcy)] (H-KKK[Dap]EPRGDNYR[hCys]-OH; linker 4-13 via X1)
- Performance evaluation: Stability (residual rate of cyclic peptide after alkali treatment) [1]: B (The residual rate of the cyclic peptide is 50% or more and less than 70%.)
- pKd (human integrin αvβ5; [2]): 7.00 to 7.30

Structure (SMILES): CC[C@H](C)[C@@H]1NC(=O)[C@@H](NC(=O)CNC(=O)[C@H](CCCCN)NC(=O)[C@H](CCCCN)NC(=O)[C@@H](N)CCCCN)CCSCC(=O)NCC[C@@H](C(=O)NCC(=O)O)NC(=O)[C@H](CCCNC(=N)N)NC(=O)[C@H](Cc2ccccc2)NC(=O)[C@H]([C@@H](C)O)NC(=O)[C@H](CC(=O)O)NC(=O)CNC(=O)[C@H](CCCNC(=N)N)NC(=O)[C@@H]2CCCN2C1=O [Cyclic peptide 55, KKKG-(Hcy)-IPRGDTFR(Dab(acetyl))G] (H-KKKG[hCys]IPRGDTFR[Dab]G-OH; linker 5-14 via X2)
- Performance evaluation: Stability (residual rate of cyclic peptide after alkali treatment) [1]: A (The residual rate of the cyclic peptide is 70% or more.)
- pKd (human integrin αvβ5; [2]): > 7.30

Structure (SMILES): CC[C@H](C)[C@@H]1NC(=O)[C@@H](NC(=O)[C@H](C)NC(=O)[C@H](CCCCN)NC(=O)[C@H](CCCCN)NC(=O)[C@@H](N)CCCCN)CCNC(=O)CSC(C)(C)[C@@H](C(=O)N[C@@H](C)C(=O)O)NC(=O)[C@H](C)NC(=O)[C@H](Cc2ccccc2)NC(=O)[C@H](CO)NC(=O)[C@H](CC(=O)O)NC(=O)CNC(=O)[C@H](CCCNC(=N)N)NC(=O)[C@@H]2CCCN2C1=O [Cyclic peptide 137, KKKA(Dab(acetyl))IPRGDSFA-(Pen)-A] (H-KKKA[Dab]IPRGDSFA[Pen]A-OH; linker 5-14 via X1)
- Stability (molecule stability, residual rate of the cyclic peptide rank) [1]: A (The residual rate of the cyclic peptide is 70% or more.)
- pKd (human integrin αvβ5; [3]): 7.00 to 7.30
